Legend:
in vivo = conditions: rat, in vivo, po, 20 mg/kg; for AUC(0-inf): AUC0-∞; for MRT last: MRT0-t; for MRT inf: MRT 0-∞; for half-life: t1/2z
Protocol: The pharmacokinetic study was described as follows.
The UHPLC-TQ-MS analysis was conducted on an LC-30 AD ultra high-performance liquid chromatograph (Shimadzu, Japan) connected to an AB 4500 (AB Sciex, United States) Triple Quadrupole Mass Spectrometer with an ESI source. Chromatographic separation was achieved on an Acquity UHPLC HSS T3 column (100 × 2.1 mm, 1.8 μm) at 40 °C, and the eluent was aqueous formic acid (100:0.1, v/v) (A) and acetonitrile with formic acid (100:0.1, v/v) (B) at a flow rate of 0.3 mL min^−1. Gradient elution differs in the calculation of residual content and pharmacokinetic experiments. MRM mode was employed. Data processing was performed using Analyst Software (AB Sciex). The UHPLC-TQ-MS method validation was conducted in terms of selectivity, linearity, carryover, accuracy and precision, matrix effect, extraction recovery, dilution integrity, and stability under various conditions, which was performed in line with the FDA guidelines for bioanalytical assays. More details were described in the Supplementary material method.
The comparisons of the relative abundance of the genera between different groups were performed using the Wilcoxon rank-sum test. Comparisons between WKY and SHRs before and after CRO treatment were conducted using either a t-test or one-way ANOVA, with p values < 0.05 considered statistically significant. […] Graphs were created using GraphPad Prism 8.0 software.
For the determination of drug remaining contents in the supernatant, the gradient elution was as follows: 0.1–0.5 min at 45% B; 0.5–1.0 min at 45–65% B; 1.5–4.0 min at 65–85% B; 4.0–4.5 min at 85% B; 4.5–4.6 min at 85%–45% B; 4.6–5.0 min at 45% B. For pharmacokinetics, the gradient elution was performed as follows: 0–0.5 min at 30% B; 0.5–1.5 min at 30–45% B; 1.5–5.0 min at 45–60% B; 5.0–7.0 min at 60–80% B; 7.0–8.0 min at 80% B; 8.1–10.0 min at 30% B. The injection volume was 5 μ L. The multiple reaction monitoring (MRM) mode was used to detect analytes and IS in the positive ion mode. The mass spectrometry parameters were set as follows: ion spray voltage was 5500 V, turbo spray temperature (TEM) of 550℃; nebulizer gas (gas 1) of 50 psi; heater gas (gas 2) of 50 psi and curtain gas of 40 psi. Nitrogen was kept as the nebulizer and auxiliary gas.

[1] = system: Limosilactobacillus reuteri (JCM 1112); assay: Co-incubation of drug with L. reuteri (degradation, growth); type: in vitro ADME; conditions: tested concentrations; OD600
Protocol: Enterococcus faecalis (ATCC 51299, BNCC) was cultured in modified brain heart infusion (BHI) broth supplemented with L-cysteine HCl (0.5 g/L), vitamin K1 (10 mg/L), hemin (5 mg/L) and resazurin (1 mg/L). Limosilactobacillus reuteri (JCM 1112, Guangdong Academy of Sciences) was cultured in MRS medium at 37 °C in an anaerobic chamber (5%H2, 5%CO2 and 90%N2). Drug metabolism assays were performed in 96-well plates under optimal growth conditions for each strain. […] Each experiment comprised three biological replicates, including a bacteria-free control. The growth of strains was monitored by measuring OD600 (Eon Microplate Spectrophotometer, BioTek) every 2 h for the first 10 h, followed by 12 to 24 h intervals until 72 h. Supernatants were withdrawn at 6, 12, 24, 48, and 72 h. The remaining drug content and the formation of E-3179 were quantified via UHPLC-TQ-MS. The sample preparation for quantitative analysis was the same as in section 2.3.

[2] = after administration; ref Zhou et al., 2009; Mukai et al., 2015; cited from earlier work
human intestinal flora = system: human intestinal flora; design: method as in Zimmermann et al., 2019; conditions: in vitro; fecal samples from healthy individuals; ref Zimmermann et al., 2019; cited from earlier work

| Compound | Decrease of AUC0-∞ (in vivo; SHR compared with WKY) [%] | MRT0-t (in vivo; SHR) [h] | MRT 0-∞ (in vivo; SHR) [h] | t1/2z (in vivo; SHR) [h] | Cmax (in vivo; SHR, Cmax) [ng/mL] | MRT last (in vivo; SHR) [h] | MRT inf (in vivo; SHR) [h] | Tmax (in vivo; SHR, Tmax) [h] | half-life (in vivo; SHR) [h] | Cmax (in vivo; WKY) [ng/mL] | MRT0-t (in vivo; WKY) [h] | AUC(0-t) (in vivo; WKY, AUC0-t) [ng·h/mL] | AUC(0-inf) (in vivo; WKY) [ng·h/mL] | MRT last (in vivo; WKY) [h] | Inhibition of growth of L. reuteri [1] | further results |
| --- | --- | --- | --- | --- | --- | --- | --- | --- | --- | --- | --- | --- | --- | --- | --- | --- |
| CCCCc1nc(Cl)c(C(=O)O)n1Cc1ccc(-c2ccccc2-c2nnn[nH]2)cc1 [E-3174] | 72.42 | 11.21 ± 0.73 | 21.63 ± 10.07 | 9.10 ± 8.85 | 1800 ± 1110 | 8.84 ± 1.59 | 15.1 ± 8.39 | 4.75 ± 2.56 | 10.1 ± 5.59 | 6985.09 ± 6023.88 | 12.64 ± 1.23 | 65000 ± 44100 | 78300 ± 41100 | 8.39 ± 2 | did not inhibit the growth | Tmax (in vivo; SHR): 7.00 ± 1.67 h; AUC(0-t) (in vivo; SHR, AUC0-t): 17600 ± 4270 ng·h/mL; AUC(0-inf) (in vivo; SHR): 21600 ± 3070 ng·h/mL |
| CCCCc1nc(Cl)c(CO)n1Cc1ccc(-c2ccccc2-c2nn[nH]n2)cc1 [Losartan, Losartan potassium] | 50.24 | 7.64 ± 1.16 | 12.00 ± 2.70 | 6.04 ± 2.28 | 4000 ± 1770 | 6.79 ± 1.38 | 9.65 ± 3.34 | 0.25 | 5.91 ± 3.72 | 9331.32 ± 7242.24 | 9.99 ± 0.84 | 29900 ± 15400 | 39200 ± 20400 | 5.89 ± 2.1 | did not inhibit the growth | Decline of AUC0-t (in vivo; SHR compared with WKY): 39.88%; AUC0-∞ (in vivo; SHR): 19483.83 ± 4098.26 ng·h/mL; AUC(0-t) (in vivo; SHR): 18002.60 ± 2806.38 ng·h/mL; MRT 0-∞ (in vivo; WKY): 23.65 ± 16.03 h; t1/2z (in vivo; WKY): 13.67 ± 13.15 h; MRT inf (in vivo; WKY): 16.7 ± 19.2 h; half-life (in vivo; WKY): 13.6 ± 14.3 h; Excreted in feces [2]: ~60%; Excreted in urine [2]: approximately 35%; Degradation on exposure to fecal samples (human intestinal flora): approximately 20% |
